Measurements as given in ChEMBL document CHEMBL1212933, “Alcoholysis of naturally occurring imides: misleading interpretation of antifungal activities” (J Nat Prod, 2010).
≈ marks a conversion by molar mass, not a printed value.

Columns and labels:
Cladosporium herbarum = assay: Antifungal activity against Cladosporium herbarum; type: functional, organism-based
Penicillium griseofulvum = assay: Antifungal activity against Penicillium griseofulvum; type: functional, organism-based

`CS/C=C/C(=O)N(C)C(=O)Cc1ccccc1` [PENIMIDE A] gave an EC50 (Cladosporium herbarum) of 0.9 µg/mL (≈ 3.61 µM) and an EC50 (Penicillium griseofulvum) of 3 µg/mL (≈ 12 µM).
